{
  "source": "patent US10646488B2",
  "about": "(Araxes Pharma LLC, priority 2016, dated 2020)",
  "data": [
    {"molecular_target": "T1, KRAS G12C 1-169, his-tagged protein, GDP-loaded (Homo sapiens, UniProt P01116, G12C)", "T1 construct": "KRAS G12C 1-169, his-tagged protein, GDP-loaded", "experiment": "Covalent binding (% modification) to KRAS G12C by mass spectrometry; further: test concentration or dose not given here", "settings": "covalent binding to KRAS G12C after a three minute incubation period", "values": [
      {"smiles": "C=CC(=O)N1C[C@H](C)N(c2nc(N3CC4(CCCN4C)C3)nc3c(F)c(-c4c(C)ccc5[nH]ncc45)c(Cl)cc23)C[C@H]1C", "note": "[Compound 186, 1-((2R,5S)-4-(6-chloro-8-fluoro-7-(5-methyl-1H-indazol-4-yl)-2-(5-methyl-2,5-diazaspiro[3.4]octan-2-yl)quinazolin-4-yl)-2,5-dimethyl-piperazin-1-yl) prop-2-en-1-one]", "Binding %": "++ (++ indicates binding activity from 50 to 90%)"},
      {"smiles": "C=CC(=O)N1C[C@H](C)N(c2nc(N3CC(N(C)C)C3)nc3c(F)c(-c4c(C)ccc5cn[nH]c45)c(Cl)cc23)C[C@H]1C", "note": "[Compound 187, 1-((2R,5S)-4-(6-chloro-2-(3-(dimethylamino)azetidin-1-yl)-8-fluoro-7-(6-methyl-1H-indazol-7-yl)quinazolin-4-yl)-2,5-dimethyl-piperazin-1-yl) prop-2-en-1-one]", "Binding %": "+++ (+++ indicates binding activity greater than 90%)"},
      {"smiles": "C=CC(=O)N1C[C@H](C)N(c2nc(N3CC(NC)C3)nc3c(F)c(-c4c(C)ccc5[nH]ncc45)c(Cl)cc23)C[C@H]1C", "note": "[Compound 188, 1-((2R,5S)-4-(6-chloro-8-fluoro-7-(5-methyl-1H-indazol-4-yl)-2-(3-(methylamino)azetidin-1-yl)quinazolin-4-yl)-2,5-dimethyl-piperazin-1-yl) prop-2-en-1-one]", "Binding %": "+ (+ indicates binding activity greater than 0% and up to 50%)"},
      {"smiles": "C=CC(=O)N1C[C@H](C)N(c2nc(N3CC(N(C)C)C3)nc3c(F)c(-c4c(C)ccc5[nH]ncc45)c(C(F)(F)F)cc23)C[C@H]1C", "note": "[Compound 189, 1-((2R,5S)-4-(2-(3-(dimethylamino)azetidin-1-yl)-8-fluoro-7-(5-methyl-1H-indazol-4-yl)-6-(trifluoromethyl)quinazolin-4-yl)-2,5-dimethyl-piperazin-1-yl) prop-2-en-1-one]", "Binding %": "+++ (+++ indicates binding activity greater than 90%)"},
      {"smiles": "C=CC(=O)N1C[C@H](C)N(c2nc(N3CC4(CCN(C)C4)C3)nc3c(F)c(-c4c(O)cccc4F)c(Cl)cc23)C[C@H]1C", "note": "[Compound 190, 1-((2R,5S)-4-(6-chloro-8-fluoro-7-(2-fluoro-6-hydroxyphenyl)-2-(6-methyl-2,6-diazaspiro[3.4]octan-2-yl)quinazolin-4-yl)-2,5-dimethyl-piperazin-1-yl) prop-2-en-1-one]", "Binding %": "++ (++ indicates binding activity from 50 to 90%)"},
      {"smiles": "C=CC(=O)N1C[C@H](C)N(c2nc(OCCCN(C)C)nc3c(F)c(-c4c(C)ccc5cn[nH]c45)c(Cl)cc23)C[C@H]1C", "note": "[Compound 191, 1-((2R,5S)-4-(6-chloro-2-(3-(dimethylamino)propoxy)-8-fluoro-7-(6-methyl-1H-indazol-7-yl)quinazolin-4-yl)-2,5-dimethyl-piperazin-1-yl) prop-2-en-1-one]", "Binding %": "+++ (+++ indicates binding activity greater than 90%)"},
      {"smiles": "C=CC(=O)N1C[C@H](C)N(c2nc(N3CC4(COC4)C3)nc3c(F)c(-c4c(O)cccc4F)c(Cl)cc23)C[C@H]1C", "note": "[Compound 192, 1-((2R,5S)-4-(6-chloro-8-fluoro-7-(2-fluoro-6-hydroxyphenyl)-2-(2-oxa-6-azaspiro[3.3]heptan-6-yl)quinazolin-4-yl)-2,5-dimethyl-piperazin-1-yl) prop-2-en-1-one]", "Binding %": "++ (++ indicates binding activity from 50 to 90%)"},
      {"smiles": "C=CC(=O)N1C[C@H](C)N(c2nc(N3CC4(CCO4)C3)nc3c(F)c(-c4c(C)ccc5[nH]ncc45)c(Cl)cc23)C[C@H]1C", "note": "[Compound 193, 1-((2R,5S)-4-(6-chloro-8-fluoro-7-(5-methyl-1H-indazol-4-yl)-2-(1-oxa-6-azaspiro[3.3]heptan-6-yl)quinazolin-4-yl)-2,5-dimethyl-piperazin-1-yl) prop-2-en-1-one]", "Binding %": "++ (++ indicates binding activity from 50 to 90%)"},
      {"smiles": "C=CC(=O)N1C[C@H](C)N(c2nc(N3CC4(CCCN(C)C4)C3)nc3c(F)c(-c4c(C)ccc5[nH]ncc45)c(Cl)cc23)C[C@H]1C", "note": "[Compound 194, 1-((2R,5S)-4-(6-chloro-8-fluoro-7-(5-methyl-1H-indazol-4-yl)-2-(6-methyl-2,6-diazaspiro[3.5]nonan-2-yl)quinazolin-4-yl)-2,5-dimethyl-piperazin-1-yl) prop-2-en-1-one]", "Binding %": "++ (++ indicates binding activity from 50 to 90%)"},
      {"smiles": "C=CC(=O)N1C[C@H](C)N(c2nc(N3CC4(CCCN(C5CC5)C4)C3)nc3c(F)c(-c4c(O)cccc4F)c(Cl)cc23)C[C@H]1C", "note": "[Compound 195, 1-((2R,5S)-4-(6-chloro-2-(6-cyclopropyl-2,6-diazaspiro[3.5]nonan-2-yl)-8-fluoro-7-(2-fluoro-6-hydroxyphenyl)quinazolin-4-yl)-2,5-dimethyl-piperazin-1-yl) prop-2-en-1-one]", "Binding %": "+ (+ indicates binding activity greater than 0% and up to 50%)"},
      {"smiles": "[2H]C([2H])([2H])N(C1CN(c2nc(N3C[C@@H](C)N(C(=O)C=C)C[C@@H]3C)c3cc(Cl)c(-c4c(O)cccc4F)c(F)c3n2)C1)C([2H])([2H])[2H]", "note": "[Compound 196, 1-((2R,5S)-4-(2-(3-(bis (trideuteromethyl)amino)azetidin-1-yl)-6-chloro-8-fluoro-7-(2-fluoro-6-hydroxyphenyl)quinazolin-4-yl)-2,5-dimethyl-piperazin-1-yl) prop-2-en-1-one]", "Binding %": "+++ (+++ indicates binding activity greater than 90%)"},
      {"smiles": "C=CC(=O)N1C[C@H](C)N(c2nc(OCCc3ncccn3)nc3c(F)c(-c4c(C)ccc5[nH]ncc45)c(Cl)cc23)C[C@H]1C", "note": "[Compound 197, 1-((2R,5S)-4-(6-chloro-8-fluoro-7-(5-methyl-1H-indazol-4-yl)-2-(2-(pyrimidin-2-yl)ethoxy)quinazolin-4-yl)-2,5-dimethyl-piperazin-1-yl) prop-2-en-1-one]", "Binding %": "+++ (+++ indicates binding activity greater than 90%)"},
      {"smiles": "C=CC(=O)N1C[C@H](C)N(c2nc(OCCc3ncccn3)nc3c(F)c(-c4c(O)cccc4F)c(Cl)cc23)C[C@H]1C", "note": "[Compound 198, 1-((2R,5S)-4-(6-chloro-8-fluoro-7-(2-fluoro-6-hydroxyphenyl)-2-(2-(pyrimidin-2-yl)ethoxy)quinazolin-4-yl)-2,5-dimethyl-piperazin-1-yl) prop-2-en-1-one]", "Binding %": "+++ (+++ indicates binding activity greater than 90%)"},
      {"smiles": "C=CC(=O)N1C[C@H](C)N(c2nc(OCCCN(C)C)nc3c(F)c(-c4c(C)ccc5[nH]ncc45)c(Cl)cc23)C[C@H]1C", "note": "[Compound 199, 1-((2R,5S)-4-(6-chloro-2-(3-(dimethylamino)propoxy)-8-fluoro-7-(5-methyl-1H-indazol-4-yl)quinazolin-4-yl)-2,5-dimethyl-piperazin-1-yl) prop-2-en-1-one]", "Binding %": "++ (++ indicates binding activity from 50 to 90%)"},
      {"smiles": "C=CC(=O)N1C[C@H](C)N(c2nc(N3CC4(CCN(C5CC5)CC4)C3)nc3c(F)c(-c4c(C)ccc5[nH]ncc45)c(Cl)cc23)C[C@H]1C", "note": "[Compound 200, 1-((2R,5S)-4-(6-chloro-2-(7-cyclopropyl-2,7-diazaspiro[3.5]nonan-2-yl)-8-fluoro-7-(5-methyl-1H-indazol-4-yl)quinazolin-4-yl)-2,5-dimethyl-piperazin-1-yl) prop-2-en-1-one]", "Binding %": "++ (++ indicates binding activity from 50 to 90%)"},
      {"smiles": "C=CC(=O)N1C[C@H](C)N(c2nc(OCCN3CCC(F)(F)C3)nc3c(F)c(-c4cc(O)cc5ccccc45)c(Cl)cc23)C[C@H]1C", "note": "[Compound 201, 1-((2R,5S)-4-(6-chloro-2-(2-(3,3-difluoropyrrolidin-1-yl)ethoxy)-8-fluoro-7-(3-hydroxynaphthalen-1-yl)quinazolin-4-yl)-2,5-dimethyl-piperazin-1-yl) prop-2-en-1-one]", "Binding %": "++ (++ indicates binding activity from 50 to 90%)"},
      {"smiles": "C=CC(=O)N1C[C@H](C)N(c2nc(OCCN3CCC(F)(F)C3)nc3c(F)c(-c4c(C)ccc5cn[nH]c45)c(Cl)cc23)C[C@H]1C", "note": "[Compound 202, 1-((2R,5S)-4-(6-chloro-2-(2-(3,3-difluoro-pyrrolidin-1-yl)ethoxy)-8-fluoro-7-(6-methyl-1H-indazol-7-yl)quinazolin-4-yl)-2,5-dimethyl-piperazin-1-yl) prop-2-en-1-one]", "Binding %": "+++ (+++ indicates binding activity greater than 90%)"},
      {"smiles": "C=CC(=O)N1C[C@H](C)N(c2nc(OCCN3CCC(F)(F)C3)nc3c(F)c(-c4c(O)cccc4F)c(Cl)cc23)C[C@H]1C", "note": "[Compound 203, 1-((2R,5S)-4-(6-chloro-2-(2-(3,3-difluoropyrrolidin-1-yl)ethoxy)-8-fluoro-7-(2-fluoro-6-hydroxyphenyl)quinazolin-4-yl)-2,5-dimethyl-piperazin-1-yl) prop-2-en-1-one]", "Binding %": "+++ (+++ indicates binding activity greater than 90%)"},
      {"smiles": "C=CC(=O)N1C[C@H](C)N(c2nc(Oc3ccnn3C)nc3c(F)c(-c4c(C)ccc5[nH]ncc45)c(Cl)cc23)C[C@H]1C", "note": "[Compound 204, 1-((2R,5S)-4-(6-chloro-8-fluoro-7-(5-methyl-1H-indazol-4-yl)-2-((1-methyl-1H-pyrazol-5-yl)oxy)quinazolin-4-yl)-2,5-dimethyl-piperazin-1-yl) prop-2-en-1-one]", "Binding %": "++ (++ indicates binding activity from 50 to 90%)"},
      {"smiles": "C=CC(=O)N1C[C@H](C)N(c2nc(Oc3ccnn3C)nc3c(F)c(-c4cc(O)cc5ccccc45)c(Cl)cc23)C[C@H]1C", "note": "[Compound 205, 1-((2R,5S)-4-(6-chloro-8-fluoro-7-(3-hydroxy-naphthalen-1-yl)-2-((1-methyl-1H-pyrazol-5-yl)oxy)quinazolin-4-yl)-2,5-dimethyl-piperazin-1-yl) prop-2-en-1-one]", "Binding %": "++ (++ indicates binding activity from 50 to 90%)"},
      {"smiles": "C=CC(=O)N1C[C@H](C)N(c2nc(N3CC(N(C)C)C3)nc3c(F)c(-c4c(O)cccc4F)c(C(F)(F)F)cc23)C[C@H]1C", "note": "[Compound 206, 1-((2R,5S)-4-(2-(3-(dimethylamino)azetidin-1-yl)-8-fluoro-7-(2-fluoro-6-hydroxyphenyl)-6-(trifluoromethyl)quinazolin-4-yl)-2,5-dimethyl-piperazin-1-yl) prop-2-en-1-one]", "Binding %": "+++ (+++ indicates binding activity greater than 90%)"}
    ]}
  ]
}
